Source: patent US20070190554A1, “Novel binding site for retigabine on KCNQ5” (priority 2006, published 2007)
Entries after “also recorded” stand apart in the source; their conditions may differ. Where two headings read alike, the source gives them in different places.

How the values were obtained:
[1] = biological target: KCNQ5 containing an S5-S6 transmembrane domain from KCNQ1 (Homo sapiens, UniProt Q9NR82, A261I/A269T/A329S/A332S/F282Y/G330C/G335A/I307V/INS291VNESG/K264Q/K293V/L283F/L309V/L320Q/L323V/L326T/L327I/L333V/L334F/N292R/R325K/S263R/S296G/S328A/T297S/T306V/T318V/V276G/V287A/W270L/Y260F); conditions: 50 μM retigabine
Description: Differences were considered to be significant at P<0.05.
All mutations were confirmed by DNA sequencing.

KCNQ5(W270L) = biological target: T1, KCNQ5(W270L) (Homo sapiens, UniProt Q9NR82, W270L); assay: Two-electrode voltage clamp in Xenopus oocytes, S5 point mutant KCNQ5(W270L); type: cell-based; conditions: 50 μM retigabine; FIG. 3 bottom panel
T1 construct: expressed in transfected cells; host or cells: Xenopus oocytes injected with cRNA
Description: (§1) FIG. 3 Mutagenesis analysis of S5 domain in KCNQ5. Sequence alignment of all five members in KCNQ family is shown on the top. The most diverse residues between KCNQ1 and the other members are highlighted in bold case and the corresponding residues in KCNQ5 were individually mutated to their counterparts in KCNQ1. Then each mutant with single mutation was tested with 50 μM retigabine and the fold increase (IΔ/I0) in current amplitude was plotted in the graph on bottom. In all mutants, n equals 6.
(§2) The gene sequences were confirmed by DNA sequencing. […] Electrophysiological recording was performed 3-7 days after injection.
(§3) The S5 domains of all five KCNQ members were sequence aligned and searched for unique amino acid residues that might account for the lack of KCNQ1's response to retigabine. As shown in FIG. 3 upper panel, there are ten unmatched residues between KCNQ1 and KCNQ5. Seven of them highlighted in FIG. 3 may be unique for KCNQ1. Therefore, mutations in KCNQ5 were generated for each of 7 residues modified individually to the corresponding in KCNQ1. One mutant, KCNQ5(F282Y) lost its functionality when expressed in oocytes. […] Retigabine's effect on each of these mutants was then tested.

KCNQ5(A269T) = biological target: T2, KCNQ5(A269T) (Homo sapiens, UniProt Q9NR82, A269T); assay: Two-electrode voltage clamp in Xenopus oocytes, S5 point mutant KCNQ5(A269T); type: cell-based; conditions: 50 μM retigabine; FIG. 3 bottom panel
T2 construct: mutations in KCNQ5 were generated for each of 7 residues modified individually to the corresponding in KCNQ1; expressed in transfected cells; host or cells: Xenopus oocytes injected with cRNA
Description: as §1, §2, §3

[2] = biological target: KCNQ5 containing an S5 transmembrane domain from KCNQ1 (Homo sapiens, UniProt Q9NR82, A261I/A269T/F282Y/K264Q/L283F/S263R/V276G/V287A/W270L/Y260F); conditions: 50 μM retigabine
Description: Expression of KCNQ5 and KCNQ1 channels into Xenopus oocytes—Human KCNQ5 and KCNQ1 genes were cloned into a pKSM vector that has been engineered specifically for oocyte expression. […] Xenopus oocytes were injected with 46 nl solution containing approximately 9.2 ng cRNA using a Drumond Nanojet oocyte injector (Drummond Scientific Co., Broomall, Pa.). Electrophysiological recording was performed 3-7 days after injection.
Electrophysiology—All experiments were performed at room temperature (22-23° C.) using conventional oocyte two-electrode voltage clamp recording (TEVC). The recording electrodes were pulled from 1.5 mm glass pipette using a Sutter P-97 micropipette puller (Sutter Instrument, Novato, Calif.) and filled with 3M KCl. The pipette tip was carefully broken off to acquire the electrode resistance at 0.5-1 Mohm. A Dagan CA-1 amplifier (Dagan Corporation, Minneapolis Minn.) was used and the holding potential was clamped at −100 mV. To test voltage dependence of channel activation, a series of depolarized voltage pulses was applied. To observe the time course of retigabine's effect, a single (3 sec) voltage pulse at 40 mV was applied repeatedly at 15 sec intervals. A HEKA computer interface (HEKA Elektronik, Lambrecht, Germany) with Pulse 8.5 software was used to control the amplifier and digitized the data for analysis. Solutions and Chemicals—ND96 solution containing (in mM) NaCl, 96, KCl, 2, CaCl2, 1.8, MgCl2, 1, HEPES, 10 was used for oocyte incubation and recording. Retigabine was made as a stock solution in DMSO at 50 mM and diluted into desired concentrations just before application in experiments. […] In all experiments, DMSO was used less than 0.4%.
Compounds were applied to the cells via a fast bath perfusion system (ALA Scientific Instruments, Westbury, N.Y.), and a bath solution change was completed within 10 seconds.
Data analysis—Current amplitude was measured online using HEKA Pulsefit 8.5 software. To acquire channel conductance from macroscopic current, the K^+ reversal potential was approximated to be −80 mV in ND96 solution and the following equation was applied: G=I/(V+80), where G is the whole oocyte conductance, I is the whole oocyte current, and V is the voltage used to induce the current. Data were expressed as mean±SE, and the paired student t test was performed. Differences were considered to be significant at P<0.05.
To further dissect the action site of retigabine, the S5-S6 transmembrane domain from KCNQ1 was divided into two parts, the S5 transmembrane domain and the S6 transmembrane domain (with linker), and the corresponding chimeric channels of KCNQ5 contained S5 transmembrane domain or S6 transmembrane domain from KCNQ1.

KCNQ1 wild-type = KCNQ1 wild-type (Homo sapiens, UniProt P51787); conditions: FIG. 4A
Description: The steady state amplitudes of the currents evoked by a series of depolarized voltage pulses from −100 to 80 mV in 10 mV increment were normalized to the level evoked by the membrane potential of 80 mV in the control group. The holding potential was −100 mV.
Expression of KCNQ5 and KCNQ1 channels into Xenopus oocytes—Human KCNQ5 and KCNQ1 genes were cloned into a pKSM vector that has been engineered specifically for oocyte expression. The gene sequences were confirmed by DNA sequencing. […] The constructs were linearized by XbaI restriction enzyme (NEB, Beverly, Mass.). In vitro transcription was performed with an mMESSAGE mMACHINE® kit (Ambion, Austin, Tex.) and the cRNA was purified by phenol extraction. Xenopus oocytes were injected with 46 nl solution containing approximately 9.2 ng cRNA using a Drumond Nanojet oocyte injector (Drummond Scientific Co., Broomall, Pa.). Electrophysiological recording was performed 3-7 days after injection.
Electrophysiology—All experiments were performed at room temperature (22-23° C.) using conventional oocyte two-electrode voltage clamp recording (TEVC). […]
Data analysis—Current amplitude was measured online using HEKA Pulsefit 8.5 software. […] Data were expressed as mean±SE, and the paired student t test was performed. […]

Wild type KCNQ5 = Wild type KCNQ5 (Homo sapiens, UniProt Q9NR82); conditions: cited from earlier work
rat KCNQ5 polypeptide = rat KCNQ5 polypeptide (Rattus norvegicus, UniProt F1LY25); conditions: Jensen et al. 2005; cited from earlier work
mouse KCNQ5 polypeptide = mouse KCNQ5 polypeptide (Mus musculus, UniProt Q9JK45); conditions: Jensen et al. 2005; cited from earlier work
KCNQ1 = KCNQ1 (Homo sapiens, UniProt P51787); conditions: background statement; cited from earlier work
KCNQ1(L171W) = biological target: T3, KCNQ1(L171W) (Homo sapiens, UniProt P51787, L266W); assay: Two-electrode voltage clamp in Xenopus oocytes, KCNQ1(L171W)
T3 sequence (P51787 with tags, fused parts or gaps L266W): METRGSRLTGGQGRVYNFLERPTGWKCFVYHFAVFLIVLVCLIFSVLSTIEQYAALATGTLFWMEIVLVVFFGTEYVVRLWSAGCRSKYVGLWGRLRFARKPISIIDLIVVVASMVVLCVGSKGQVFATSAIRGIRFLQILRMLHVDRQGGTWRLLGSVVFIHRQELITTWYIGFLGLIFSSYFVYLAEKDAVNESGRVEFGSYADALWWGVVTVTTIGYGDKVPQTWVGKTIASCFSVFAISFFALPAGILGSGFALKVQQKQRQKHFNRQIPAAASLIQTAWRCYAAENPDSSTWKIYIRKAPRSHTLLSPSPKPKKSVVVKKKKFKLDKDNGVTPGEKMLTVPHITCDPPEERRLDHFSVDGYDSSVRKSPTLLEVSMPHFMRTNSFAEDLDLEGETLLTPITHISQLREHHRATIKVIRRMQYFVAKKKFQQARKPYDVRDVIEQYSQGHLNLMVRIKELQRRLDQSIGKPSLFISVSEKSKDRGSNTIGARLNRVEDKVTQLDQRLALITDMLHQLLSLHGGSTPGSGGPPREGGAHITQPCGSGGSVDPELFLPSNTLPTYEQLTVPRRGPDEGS

Chain of KCNQ5 containing an S5 transmembrane domain from KCNQ1 (Q9NR82 whole entry Y260F/A261I/S263R/K264Q/A269T/W270L/V276G/F282Y/L283F/V287A, the tested form may be a part): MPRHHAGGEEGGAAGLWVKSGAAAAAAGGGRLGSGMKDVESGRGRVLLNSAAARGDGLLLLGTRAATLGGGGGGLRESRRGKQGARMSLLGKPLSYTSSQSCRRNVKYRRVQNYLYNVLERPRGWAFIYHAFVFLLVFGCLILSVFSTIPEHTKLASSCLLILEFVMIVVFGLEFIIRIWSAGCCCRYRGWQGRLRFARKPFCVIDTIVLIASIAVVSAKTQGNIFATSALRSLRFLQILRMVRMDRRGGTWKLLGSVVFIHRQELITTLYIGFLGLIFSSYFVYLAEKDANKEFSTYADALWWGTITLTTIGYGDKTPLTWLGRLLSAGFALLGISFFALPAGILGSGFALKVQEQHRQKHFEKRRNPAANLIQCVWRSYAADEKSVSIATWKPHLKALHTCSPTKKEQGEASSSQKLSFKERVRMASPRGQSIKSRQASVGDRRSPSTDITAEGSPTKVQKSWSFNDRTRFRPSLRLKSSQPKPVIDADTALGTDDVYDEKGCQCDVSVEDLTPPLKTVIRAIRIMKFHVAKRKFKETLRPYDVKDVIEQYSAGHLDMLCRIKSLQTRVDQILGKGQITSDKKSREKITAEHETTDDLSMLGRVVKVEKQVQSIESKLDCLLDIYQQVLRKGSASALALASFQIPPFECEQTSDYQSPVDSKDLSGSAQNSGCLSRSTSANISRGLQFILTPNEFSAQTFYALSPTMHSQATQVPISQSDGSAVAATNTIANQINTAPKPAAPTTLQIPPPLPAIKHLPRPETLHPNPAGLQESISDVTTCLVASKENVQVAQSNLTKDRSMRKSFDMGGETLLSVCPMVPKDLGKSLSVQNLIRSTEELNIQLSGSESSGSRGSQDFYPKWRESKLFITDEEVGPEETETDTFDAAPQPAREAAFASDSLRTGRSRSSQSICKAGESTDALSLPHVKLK
Chain of KCNQ5 containing an S5-S6 transmembrane domain from KCNQ1 (Q9NR82 other isoform, or with tags, fused parts or gaps with the stated changes): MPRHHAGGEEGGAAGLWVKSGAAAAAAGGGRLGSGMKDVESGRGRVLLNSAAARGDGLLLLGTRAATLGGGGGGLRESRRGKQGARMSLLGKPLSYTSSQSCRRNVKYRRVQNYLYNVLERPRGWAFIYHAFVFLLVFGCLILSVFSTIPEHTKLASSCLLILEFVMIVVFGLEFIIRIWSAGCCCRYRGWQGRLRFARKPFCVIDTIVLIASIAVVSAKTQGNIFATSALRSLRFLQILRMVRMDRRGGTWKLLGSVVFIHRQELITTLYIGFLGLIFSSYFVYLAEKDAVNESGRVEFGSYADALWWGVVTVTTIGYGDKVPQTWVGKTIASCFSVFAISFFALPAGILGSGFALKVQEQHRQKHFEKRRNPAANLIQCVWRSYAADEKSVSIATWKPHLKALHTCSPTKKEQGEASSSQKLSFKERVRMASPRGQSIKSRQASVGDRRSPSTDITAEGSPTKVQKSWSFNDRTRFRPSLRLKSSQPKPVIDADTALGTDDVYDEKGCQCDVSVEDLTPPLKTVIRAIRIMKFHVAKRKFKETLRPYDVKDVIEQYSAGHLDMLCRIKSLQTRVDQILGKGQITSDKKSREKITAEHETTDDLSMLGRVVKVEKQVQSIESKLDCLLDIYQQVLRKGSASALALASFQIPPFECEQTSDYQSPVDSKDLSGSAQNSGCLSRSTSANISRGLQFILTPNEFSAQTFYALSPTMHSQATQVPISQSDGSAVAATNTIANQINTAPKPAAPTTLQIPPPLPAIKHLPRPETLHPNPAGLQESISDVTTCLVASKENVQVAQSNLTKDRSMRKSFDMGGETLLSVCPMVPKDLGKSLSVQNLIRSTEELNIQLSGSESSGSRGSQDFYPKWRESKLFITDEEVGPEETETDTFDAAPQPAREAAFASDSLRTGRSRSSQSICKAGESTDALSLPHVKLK
Chain of Wild type KCNQ5 (Q9NR82 whole entry): as the sequence (Q9NR82 whole entry Y260F/A261I/S263R/K264Q/A269T/W270L/V276G/F282Y/L283F/V287A, the tested form may be a part) above, with F260Y, I261A, R263S, Q264K, T269A, L270W, G276V, Y282F, F283L, A287V counted along it
T1 sequence (Q9NR82 whole entry W270L): as the sequence (Q9NR82 whole entry Y260F/A261I/S263R/K264Q/A269T/W270L/V276G/F282Y/L283F/V287A, the tested form may be a part) above, with F260Y, I261A, R263S, Q264K, T269A, G276V, Y282F, F283L, A287V counted along it
T2 sequence (Q9NR82 whole entry A269T): as the sequence (Q9NR82 whole entry Y260F/A261I/S263R/K264Q/A269T/W270L/V276G/F282Y/L283F/V287A, the tested form may be a part) above, with F260Y, I261A, R263S, Q264K, L270W, G276V, Y282F, F283L, A287V counted along it
Chain of rat KCNQ5 polypeptide (F1LY25 1-951): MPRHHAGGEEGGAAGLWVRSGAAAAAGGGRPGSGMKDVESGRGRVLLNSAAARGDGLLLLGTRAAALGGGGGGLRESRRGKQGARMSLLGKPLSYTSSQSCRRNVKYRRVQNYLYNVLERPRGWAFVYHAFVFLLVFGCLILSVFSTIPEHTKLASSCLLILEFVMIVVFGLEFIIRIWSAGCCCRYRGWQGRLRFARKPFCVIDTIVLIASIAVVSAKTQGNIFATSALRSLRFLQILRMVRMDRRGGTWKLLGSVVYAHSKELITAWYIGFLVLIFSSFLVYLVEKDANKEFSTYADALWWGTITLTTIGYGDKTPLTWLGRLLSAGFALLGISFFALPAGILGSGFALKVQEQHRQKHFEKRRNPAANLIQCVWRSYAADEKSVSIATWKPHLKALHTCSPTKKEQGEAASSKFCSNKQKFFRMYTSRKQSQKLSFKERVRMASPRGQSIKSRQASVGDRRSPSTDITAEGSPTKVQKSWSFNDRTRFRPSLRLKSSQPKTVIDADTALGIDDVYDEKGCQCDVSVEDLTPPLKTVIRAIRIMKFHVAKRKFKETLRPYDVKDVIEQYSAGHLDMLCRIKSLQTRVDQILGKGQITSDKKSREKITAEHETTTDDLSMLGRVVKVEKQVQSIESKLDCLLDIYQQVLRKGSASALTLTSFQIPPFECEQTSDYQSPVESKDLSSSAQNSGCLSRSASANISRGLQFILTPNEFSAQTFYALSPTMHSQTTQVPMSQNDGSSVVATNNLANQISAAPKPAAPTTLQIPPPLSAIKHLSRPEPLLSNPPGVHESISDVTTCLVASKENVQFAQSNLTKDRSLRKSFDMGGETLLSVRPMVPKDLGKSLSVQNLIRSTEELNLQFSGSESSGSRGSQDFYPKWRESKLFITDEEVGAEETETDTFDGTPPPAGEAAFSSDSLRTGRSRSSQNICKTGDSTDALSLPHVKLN
Chain of mouse KCNQ5 polypeptide (Q9JK45 whole entry): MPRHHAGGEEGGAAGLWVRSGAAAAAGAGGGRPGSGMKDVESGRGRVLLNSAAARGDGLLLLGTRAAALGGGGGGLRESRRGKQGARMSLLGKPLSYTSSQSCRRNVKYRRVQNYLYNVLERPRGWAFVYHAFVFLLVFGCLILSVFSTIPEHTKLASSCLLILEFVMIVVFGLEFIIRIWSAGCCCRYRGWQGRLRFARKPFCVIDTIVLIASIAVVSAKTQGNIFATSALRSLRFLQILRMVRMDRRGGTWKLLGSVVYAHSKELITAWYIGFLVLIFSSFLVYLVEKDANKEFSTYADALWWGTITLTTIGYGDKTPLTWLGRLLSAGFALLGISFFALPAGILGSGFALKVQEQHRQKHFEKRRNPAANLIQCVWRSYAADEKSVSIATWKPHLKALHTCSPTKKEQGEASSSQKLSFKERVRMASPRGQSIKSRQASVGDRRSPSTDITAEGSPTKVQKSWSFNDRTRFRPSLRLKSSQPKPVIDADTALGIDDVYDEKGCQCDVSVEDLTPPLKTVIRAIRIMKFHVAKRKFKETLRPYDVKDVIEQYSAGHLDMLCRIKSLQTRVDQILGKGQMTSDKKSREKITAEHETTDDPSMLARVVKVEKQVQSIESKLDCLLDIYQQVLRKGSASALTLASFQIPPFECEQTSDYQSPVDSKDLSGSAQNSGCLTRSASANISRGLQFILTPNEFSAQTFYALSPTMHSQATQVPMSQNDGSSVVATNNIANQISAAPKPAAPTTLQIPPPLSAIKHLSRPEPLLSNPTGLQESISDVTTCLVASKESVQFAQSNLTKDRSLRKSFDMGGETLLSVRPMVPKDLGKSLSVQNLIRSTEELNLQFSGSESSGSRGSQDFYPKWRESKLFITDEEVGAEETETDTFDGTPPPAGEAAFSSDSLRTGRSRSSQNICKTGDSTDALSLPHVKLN

CCOC(=O)Nc1ccc(NCc2ccc(F)cc2)cc1N [retigabine, N-(2-amino-4-(4-fluorobenzylamino)-phenyl)carbamic acid ethyl ester]
current (I)-voltage relationship in the absence vs presence of retigabine ([1]; 5 min after the application, p>0.05): No significant difference
change of current amplitude and voltage dependent activation ([1]; 5 min application period, FIG. 1C): neither current amplitude nor voltage dependent activation changed significantly
effect on channel activities ([1]; oocytes, FIGS. 1A and 1B): no longer augmented the channel activities
response to retigabine (fold increase IΔ/I0 in current amplitude) (KCNQ5(W270L)): significantly less response; also recorded: completely lost the response
response to retigabine (fold increase IΔ/I0 in current amplitude) (KCNQ5(A269T)): significantly less response
channel current induced by depolarization to 40 mV ([2]; 5 min of bath application): remained unchanged
current amplitude and voltage dependence of the currents (I-V curves before and after treatment) ([2]; FIG. 2A right panel, FIG. 2C): Neither current amplitude nor voltage dependence of the currents was modified
effect on the mutant channel ([2]; FIG. 2B): no longer had effect
current (I)-voltage relationship in the absence vs presence of retigabine ([2]; p>0.05): No significant difference
response of channel current (KCNQ1 wild-type; 50 μM retigabine): no significant response
response of channel current (KCNQ1 wild-type; 200 μM retigabine): slightly inhibitory response
responsiveness of the channel to retigabine (Wild type KCNQ5; Wickendon et al. 2001): responsive
opening of KCNQ channels (Wild type KCNQ5; background statement): open
sensitivity of the channel to retigabine (rat KCNQ5 polypeptide): sensitive
sensitivity of the channel to retigabine (mouse KCNQ5 polypeptide): sensitive
enhancing effect on the channel (KCNQ1): no enhancing effect
steady state current amplitude (KCNQ1(L171W); 50 μM retigabine, FIG. 4B): clearly reduced
voltage dependence of channel activation (KCNQ1(L171W); FIG. 4D and inset (200 μM)): modified the voltage dependence of channel activation
activation kinetics of the current (KCNQ1(L171W); current evoked at 80 mV, FIG. 4C): from a single to a double exponential activation time course
kind of effect on the channel (activated or blocked) (KCNQ1(L171W); oocytes, TEVC): blocked
inhibition at 200 µM (KCNQ1(L171W); read-out: inhibition of the steady-state current): 62.5%
